# US6673607B2, “Microinjection of cryoprotectants for preservation of cells” (priority 2000, dated 2004)
# Tests used:
# [1] = cited from earlier work; for temperature at which Tm and Tg curves cross (Tg′): phase diagram, FIG. 6; for Tg′: α-(1→4)-linked glucose hexamers, Levine and Slade
# [2] = tested on: metaphase II mouse oocytes; assay: fertilization and blastocyst development of fresh oocytes cultured in modified HTF media; format: cell-based
# Description: Thus, a hypertonic media for the culturing of certain recovered cells was developed using a two-prong approach. First, a standard culture medium called HTF (human tubal fluid medium) was modified to minimize the concentration of electrolytes (see FIG. 7, components marked with down arrows) and to increase other nutrients and amino acids (see FIG. 7, components marked with up arrows). The osmolarity of this medium was determined using an osmometer. Because the osmolarity of this medium was approximately 285 mosm, which is close to the normal internal osmolarity of cells, this medium is called modified HTF, isotonic. Second, the water content of the medium was reduced to equally increase the concentrations of each component to achieve a final osmolarity of 320 mosm. This medium is called modified HTF, hypertonic, (see FIG. 7, last column).
# To test the ability of modified HTF, isotonic and hypertonic media to support the fertilization and development of oocytes, these medias were used to culture fresh mouse metaphase II oocytes that had not been cyropreserved. […] If desired, the composition and hypertonicity of the culture medium may be further optimized to increase the number of blastocysts or viable offspring that are formed. For example, a culture medium having a higher osmolarity (such as 330, 340, 350, 360, 370, or 380 mosm) may better mimic oviductal fluid (which may have an osmolarity of at least 360 mosm) and thus further promote development of viable offspring (Van Winkle et al., J. Expt Zool. 253:215-219, 1990). Any other suitable hypertonic media with a osmolarity of at least 300, 310, 320, 330, 340, 350, 360, 370, 380, or more mosm may be used in preferred methods for culturing cells in vitro. These methods may be used to culture cells with or without intracellular sugar. These preferred medias may also be used before, during, or after storage of cryopreserved cells.
# [3] = tested on: metaphase II mouse oocytes; assay: survival of cooled oocytes after overnight culture in modified HTF, hypertonic media (live/dead assay); format: cell-based
# Description: (§1) Once the cell is prepared for storage, it is stored in a manner appropriate to its preparation. Frozen cells can be stored at cryogenic temperatures and dried cells can be dry stored at ambient or other temperatures as appropriate. Recovery of stored cells is geared to the method of their preparation for storage. Dried cells are rehydrated, and frozen cells are thawed. Preferably, at least 25, 35, 50, 60, 70, 80, 90, 95, or 100% of the recovered cells are viable. Cell viability may be measured using any standard assay, such as a “live/dead” assay using the green dye calcein-AM to indicate viable cells and the red dye ethidium homodimer to indicate dead cells, according to the manufacturer's protocol (Molecular Probes, Inc.). In another preferred embodiment, at least 5, 10, 15, 25, 35, 50, 60, 70, 80, 90, or 95% of the recovered oocytes may be fertilized using standard in vitro fertilization techniques (see, for example, Summers et al., Biol. Reprod. 53:431-437, 1995). Preferably, the fertilized oocytes develop into 2-cell stage embryos, 4-cell stage embryos, morula-stage embryos, blastocyst-stage embryos, fetal-stage embryos, or viable offspring.
# FIGS. 9A and 9B are a set of graphs showing the survival of cooled metaphase II mouse oocytes after overnight culture in modified HTF, hypertonic media as a function of extracellular trehalose concentration at −15° and −30°, respectively. These experiments were performed using a cooling rate of 1° C./min, with or without approximately 0.10 to 0.15 M intracellular trehalose. Cell viability was assessed using the live/dead assay described herein. […] As the extracellular amount of trehalose in the freezing solution was increased from 0.15 M (approximately the same amount as the intracellular trehalose) to 0.30 M or 0.50 M, the survival rate improved from about 18, to 55 or 85%, respectively.
# [4] = tested on: metaphase II mouse oocytes; assay: survival of cooled oocytes after overnight culture in modified HTF media, isotonic (live/dead assay); format: cell-based; conditions: 0.50 M extracellular trehalose only; very slow cooling to −60° C.
# Description: as §1
# Cell survival was measured using the live/dead assay. […] In FIG. 10, oocytes were cooled at a very slow cooling rate to an intermediate temperature (−60° C.). […]
# oocytes = assay: cryomicroscopy: cumulative incidence of intracellular ice during cooling; format: cell-based; conditions: cooling 3.5° C./min
# Description: FIG. 13 is a graph with a set of curves showing the percentage of oocytes that have intracellular ice at various temperatures. For this assay, standard cryomicroscopy procedures were used to cool oocytes at a rate of 3.5° C./min (Cosman et al., Cryo-Letters 10:17-38, 1989). The oocytes were observed using a cryomicroscope to determine whether intracellular ice had formed. The presence of intracellular ice was easily detected based on the black color that appeared due to the light scattered by the ice crystals. This assay was used to test control oocytes incubated in isotonic media alone, oocytes incubated in media with 0.1 M extracellular trehalose, and oocytes injected with 0.1 M trehalose and incubated in media with 0.1 M extracellular trehalose. […] In the field of cryobiology, it has been established that the faster the cooling rate without formation of lethal intracellular ice, the greater the chance of cell survival.
# [5] = oocytes injected with 0.07 M trehalose, modified HTF, hypertonic media
compound,measurement,setting,value
"C[S+](C)[O-] [DMSO, dimethyl sulfoxide]",temperature at which Tm and Tg curves cross (Tg′),[1],approximately −80 °C
OC[C@H]1O[C@H](O[C@H]2O[C@H](CO)[C@@H](O)[C@H](O)[C@H]2O)[C@H](O)[C@@H](O)[C@@H]1O [trehalose],frequency of blastocyst formation,[2]; intracellular trehalose 0.15 M,"reduced, but still significant"
same,frequency of fertilization,[2]; intracellular trehalose 0.15 M,"reduced, but still significant"
same,frequency of blastocyst development,[2]; [5],high frequency
same,frequency of fertilization,[2]; [5],high frequency
same,survival rate,"[3]; 0.15 M extracellular trehalose in freezing solution, with approximately 0.10 to 0.15 M intracellular trehalose, cooling 1° C./min",about 18%
same,survival rate,"[3]; 0.30 M extracellular trehalose in freezing solution, with approximately 0.10 to 0.15 M intracellular trehalose, cooling 1° C./min",~55%
same,survival rate,"[3]; 0.50 M extracellular trehalose in freezing solution, with approximately 0.10 to 0.15 M intracellular trehalose, cooling 1° C./min",~85%
same,survival rate,"[3]; cooled to −15° C. at 1° C./min, approximately 0.10 to 0.15 M intracellular trehalose versus none",dramatically increased
same,survival rate,"[3]; cooled to −30° C. at 1° C./min, approximately 0.10 to 0.15 M intracellular trehalose versus none",dramatically increased
same,survival rate,[4],some improvement over the control
same,incidence of intracellular ice formation,oocytes; 0.1 M extracellular trehalose versus isotonic media alone,reduced
same,frequency of intracellular ice,oocytes; 0.1 M injected trehalose plus 0.1 M extracellular trehalose,further reduced
same,temperature at which Tm and Tg curves cross (Tg′),[1],approximately −30 °C
cyclodextrin,Tg′,[1],−9 °C
maltohexaose,Tg′,[1],−14.5 °C
